For this assay, the target named is dihydropyrimidinase (DHP) (Homo sapiens, UniProt Q14117). Description: HPLC assay of […],6-dihydrouracil. Type of assay: biochemical.
Chain of dihydropyrimidinase (DHP) (Q14117 whole entry): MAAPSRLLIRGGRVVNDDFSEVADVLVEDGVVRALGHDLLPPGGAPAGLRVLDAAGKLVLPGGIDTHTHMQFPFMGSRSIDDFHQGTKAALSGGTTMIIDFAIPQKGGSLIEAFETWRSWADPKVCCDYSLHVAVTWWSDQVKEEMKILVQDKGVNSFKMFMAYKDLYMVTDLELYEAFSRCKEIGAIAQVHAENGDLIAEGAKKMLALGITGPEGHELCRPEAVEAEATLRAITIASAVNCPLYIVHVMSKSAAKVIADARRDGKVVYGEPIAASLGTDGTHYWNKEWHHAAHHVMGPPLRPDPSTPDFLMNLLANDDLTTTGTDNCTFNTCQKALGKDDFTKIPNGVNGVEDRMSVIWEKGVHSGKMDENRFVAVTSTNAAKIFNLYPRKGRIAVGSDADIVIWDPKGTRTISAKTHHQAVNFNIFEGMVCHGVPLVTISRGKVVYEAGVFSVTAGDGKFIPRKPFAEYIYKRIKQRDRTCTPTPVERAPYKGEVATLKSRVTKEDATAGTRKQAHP

As to `O=C1c2c(O)cc(O)cc2O[C@H](c2cc(O)c(O)c(O)c2)[C@H]1O` [dihydromyricetin], the IC50 (as a rule, the point on the concentration scale where inhibition reaches its midpoint) was approximately 6 µM.

For the origin of these results see article PMC7038975 (Nucleic Acids Research, 2019).
